According to the supplement of paper PMC11451515:

Tested on: NOMO1
Experiment: cell viability relative to DMSO control; higher = less cytotoxic
Details: 48 h
In short: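 Cells were incubated for 48 h at 37°C before CellTiter-Glo One luminescence was read. The cells were NOMO1 or SEM (500 cells/well) or P12-Ichikawa (1000 cells/well) leukemia cells, adapted for at least four passages in each medium and seeded in 1536-well plates (5 μl). Dosing used library compounds in DMSO applied by pin over 11 threefold points, 47 μM to 0.79 nM. Viability is the per-plate percentage of DMSO wells, with cell-free wells as background.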

[1] = HPLM + 10% dialyzed FBS, 0.000781 µM
[2] = HPLM + 10% dialyzed FBS, 0.00234 µM
[3] = HPLM + 10% dialyzed FBS, 0.00702 µM
[4] = HPLM + 10% dialyzed FBS, 0.0211 µM
[5] = HPLM + 10% dialyzed FBS, 0.0632 µM
[6] = HPLM + 10% dialyzed FBS, 0.19 µM
[7] = HPLM + 10% dialyzed FBS, 0.569 µM
[8] = HPLM + 10% dialyzed FBS, 1.71 µM
[9] = HPLM + 10% dialyzed FBS, 5.12 µM
[10] = HPLM + 10% dialyzed FBS, 15.4 µM
[11] = HPLM + 10% dialyzed FBS, 46.1 µM
[12] = RPMI 5 mM glucose + 10% FBS, 0.000781 µM
[13] = RPMI 5 mM glucose + 10% FBS, 0.00234 µM
[14] = RPMI 5 mM glucose + 10% FBS, 0.00702 µM
[15] = RPMI 5 mM glucose + 10% FBS, 0.0211 µM
[16] = RPMI 5 mM glucose + 10% FBS, 0.0632 µM
[17] = RPMI 5 mM glucose + 10% FBS, 0.19 µM
[18] = RPMI 5 mM glucose + 10% FBS, 0.569 µM
[19] = RPMI 5 mM glucose + 10% FBS, 1.71 µM
[20] = RPMI 5 mM glucose + 10% FBS, 5.12 µM
[21] = RPMI 5 mM glucose + 10% FBS, 15.4 µM
[22] = RPMI 5 mM glucose + 10% FBS, 46.1 µM
[23] = RPMI 5 mM glucose + 10% dialyzed FBS, 0.000781 µM
[24] = RPMI 5 mM glucose + 10% dialyzed FBS, 0.00234 µM
[25] = RPMI 5 mM glucose + 10% dialyzed FBS, 0.00702 µM
[26] = RPMI 5 mM glucose + 10% dialyzed FBS, 0.0211 µM
[27] = RPMI 5 mM glucose + 10% dialyzed FBS, 0.0632 µM
[28] = RPMI 5 mM glucose + 10% dialyzed FBS, 0.19 µM
[29] = RPMI 5 mM glucose + 10% dialyzed FBS, 0.569 µM
[30] = RPMI 5 mM glucose + 10% dialyzed FBS, 1.71 µM
[31] = RPMI 5 mM glucose + 10% dialyzed FBS, 5.12 µM
[32] = RPMI 5 mM glucose + 10% dialyzed FBS, 15.4 µM
[33] = RPMI 5 mM glucose + 10% dialyzed FBS, 46.1 µM

Compound | cell viability [1] [%] | cell viability [2] [%] | cell viability [3] [%] | cell viability [4] [%] | cell viability [5] [%] | cell viability [6] [%] | cell viability [7] [%] | cell viability [8] [%] | cell viability [9] [%] | cell viability [10] [%] | cell viability [11] [%] | cell viability [12] [%] | cell viability [13] [%] | cell viability [14] [%] | cell viability [15] [%] | cell viability [16] [%] | cell viability [17] [%] | cell viability [18] [%] | cell viability [19] [%] | cell viability [20] [%] | cell viability [21] [%] | cell viability [22] [%] | cell viability [23] [%] | cell viability [24] [%] | cell viability [25] [%] | cell viability [26] [%] | cell viability [27] [%] | cell viability [28] [%] | cell viability [29] [%] | cell viability [30] [%] | cell viability [31] [%] | cell viability [32] [%] | cell viability [33] [%]
O=C(O)CCCCC(CCSCc1ccccc1)SCc1ccccc1 (configuration not stated) | 109 | 104 | 105 | 117 | 124 | 115 | 118 | 135 | 110 | 86 | 28.7 | 108 | 112 | 115 | 113 | 121 | 114 | 107 | 102 | 109 | 100 | 39.1 | 122 | 116 | 124 | 123 | 120 | 134 | 131 | 129 | 112 | 99.9 | 55.5
CCN(CC)CCOc1ccc(Cc2ccccc2)cc1 | 97.9 | 102 | 113 | 92.9 | 110 | 106 | 113 | 102 | 74.1 | 21.2 | 14.2 | 92.2 | 92.2 | 94.2 | 106 | 102 | 91.8 | 101 | 91.6 | 83.4 | 68.3 | 57 | 99.1 | 96 | 108 | 108 | 97.8 | 108 | 97.9 | 108 | 97.5 | 91.4 | 78.3
CCOC(=O)C(C#N)C\1C2=CC(=CC=C2O\C(=C1C(=O)OCC)N)Br (configuration not stated) | 113 | 120 | 110 | 99.9 | 114 | 104 | 96.1 | 107 | 117 | 92.4 | 97.5 | 97.8 | 90.3 | 97.5 | 87.9 | 99.3 | 102 | 107 | 91.5 | 94.5 | 83.7 | 82.4 | 99.1 | 95.1 | 99 | 95.7 | 104 | 83.8 | 94.4 | 94.7 | 96.7 | 80.3 | 82.6
O=C(Nc1nnc(-c2ccco2)o1)c1cc(-c2ccccc2)nc2ccccc12 | 92.3 | 103 | 117 | 124 | 118 | 120 | 114 | 114 | 65.5 | 18.7 | 6.68 | 107 | 101 | 99.9 | 105 | 100 | 101 | 93 | 111 | 98.3 | 99.3 | 13.7 | 102 | 89.3 | 107 | 96.2 | 103 | 112 | 93.4 | 117 | 118 | 106 | 13.5
CC(C)=CCC/C(C)=C/CC/C(C)=C/CSc1ccccc1C(=O)O | 93.2 | 119 | 104 | 104 | 116 | 102 | 90.4 | 68.8 | 76.4 | 57.4 | 29.8 | 103 | – | 104 | 103 | 96.1 | 99.1 | 96.2 | 95.2 | 86.8 | 67.9 | 43.5 | 98.2 | 103 | 109 | 106 | 116 | 97 | 87 | 77.1 | 61.8 | 64 | 39.3
NC(=O)[C@H]1CCS[C@@H]2C[C@]3(CCCN3C(=O)Cc3ccc(NC(=O)COc4ccc(Cl)cc4Cl)cc3)C(=O)N12 | 111 | 138 | 123 | 134 | 139 | 123 | 102 | 36.8 | 39.9 | 42.3 | 52.3 | 107 | 129 | 121 | 131 | 138 | 131 | 119 | 103 | 26.1 | 26.6 | 38.9 | – | – | – | – | – | – | – | – | – | – | –
CCC(C)N1\N=C/N(C1=O)C2=CC=C(C=C2)N3CCN(CC3)C4=CC=C(OC[C@H]5CO[C@@](C[N]6C=NC=N6)(O5)C7=CC=C(Cl)C=C7Cl)C=C4 (some centres not stated) | 110 | 98.9 | 117 | 121 | 122 | 97.2 | 108 | 102 | 107 | 90.4 | 86 | 101 | 108 | 113 | 99.6 | 111 | 121 | 93.9 | 101 | 102 | 95.3 | 85.8 | 102 | 104 | 119 | 124 | 111 | 113 | 120 | 103 | 98.9 | 99.6 | 86.2
O=C1\C=C/C=C2/[C@H]3CNC[C@H](C3)CN12 | 112 | 125 | 120 | 111 | 133 | 126 | 130 | 129 | 116 | 97.9 | 27.7 | 105 | 107 | 124 | 107 | 110 | 120 | 112 | 123 | 111 | 100 | 46.9 | 96.7 | 98.4 | 107 | 109 | 119 | 118 | 122 | 112 | 102 | 104 | 64.2
